In patent US8188117B2, “Piperidinyl-substituted isoquinolone derivatives” (Sanofi-Aventis, priority 2005, dated 2012):

Target: T1, ROCKII or ROKα (Homo sapiens, UniProt O75116)
T1 construct: purchased Upstate 14-451
Experiment: Determination of Rho kinase inhibition (γ33P ATP, Streptavidin Flash Plate)
Assay type: biochemical
Settings: ATP 40 μM, enzyme 0.1 ng/μl, 20 min at room temperature, tested as salt or free base obtained in the examples
Experimental: Determination of Rho Kinase Inhibition
To measure Rho-kinase inhibition, IC50 values were determined according to the following protocol:
Buffer: 25 mM Tris pH7.5; 0.02% BSA; 5% Glycerol; 0.008% Triton X100; 2% DMSO, 1 mM DTT; 1 mM MgCl2; 0.5 μCi/well γ^33P ATP
Enzyme: ROCKII or ROKα) (Upstate, Catalog #14-451 Lot #24880U) 0.1 ng/μl Final concentration of ATP in reaction mixture 40 μM
Biotinylated substrate, diluted to 0.25 μM with buffer described above (without ATP)
• 1. 10 μl Tris buffer (±Inhibitor) • 2. Add 30 μL of enzyme solution • 3. Start the reaction with 30 μL of mix substrate/ATP/ATP33 • 4. Incubate for 20 min at room temperature • 5. Stop reaction with 30 μL of 50 mM EDTA • 6. Transfer 50 μL of stopped solution to Streptavidin Flash Plate plus, Perkin Elmer, SMP 103A • 7. Incubate for 30 min at RT • 8. Wash 4 times with 300 μl of PBS/0.1% Tween 20 • 9. Radioactivity in the well was determined

T1 sequence (O75116 whole entry): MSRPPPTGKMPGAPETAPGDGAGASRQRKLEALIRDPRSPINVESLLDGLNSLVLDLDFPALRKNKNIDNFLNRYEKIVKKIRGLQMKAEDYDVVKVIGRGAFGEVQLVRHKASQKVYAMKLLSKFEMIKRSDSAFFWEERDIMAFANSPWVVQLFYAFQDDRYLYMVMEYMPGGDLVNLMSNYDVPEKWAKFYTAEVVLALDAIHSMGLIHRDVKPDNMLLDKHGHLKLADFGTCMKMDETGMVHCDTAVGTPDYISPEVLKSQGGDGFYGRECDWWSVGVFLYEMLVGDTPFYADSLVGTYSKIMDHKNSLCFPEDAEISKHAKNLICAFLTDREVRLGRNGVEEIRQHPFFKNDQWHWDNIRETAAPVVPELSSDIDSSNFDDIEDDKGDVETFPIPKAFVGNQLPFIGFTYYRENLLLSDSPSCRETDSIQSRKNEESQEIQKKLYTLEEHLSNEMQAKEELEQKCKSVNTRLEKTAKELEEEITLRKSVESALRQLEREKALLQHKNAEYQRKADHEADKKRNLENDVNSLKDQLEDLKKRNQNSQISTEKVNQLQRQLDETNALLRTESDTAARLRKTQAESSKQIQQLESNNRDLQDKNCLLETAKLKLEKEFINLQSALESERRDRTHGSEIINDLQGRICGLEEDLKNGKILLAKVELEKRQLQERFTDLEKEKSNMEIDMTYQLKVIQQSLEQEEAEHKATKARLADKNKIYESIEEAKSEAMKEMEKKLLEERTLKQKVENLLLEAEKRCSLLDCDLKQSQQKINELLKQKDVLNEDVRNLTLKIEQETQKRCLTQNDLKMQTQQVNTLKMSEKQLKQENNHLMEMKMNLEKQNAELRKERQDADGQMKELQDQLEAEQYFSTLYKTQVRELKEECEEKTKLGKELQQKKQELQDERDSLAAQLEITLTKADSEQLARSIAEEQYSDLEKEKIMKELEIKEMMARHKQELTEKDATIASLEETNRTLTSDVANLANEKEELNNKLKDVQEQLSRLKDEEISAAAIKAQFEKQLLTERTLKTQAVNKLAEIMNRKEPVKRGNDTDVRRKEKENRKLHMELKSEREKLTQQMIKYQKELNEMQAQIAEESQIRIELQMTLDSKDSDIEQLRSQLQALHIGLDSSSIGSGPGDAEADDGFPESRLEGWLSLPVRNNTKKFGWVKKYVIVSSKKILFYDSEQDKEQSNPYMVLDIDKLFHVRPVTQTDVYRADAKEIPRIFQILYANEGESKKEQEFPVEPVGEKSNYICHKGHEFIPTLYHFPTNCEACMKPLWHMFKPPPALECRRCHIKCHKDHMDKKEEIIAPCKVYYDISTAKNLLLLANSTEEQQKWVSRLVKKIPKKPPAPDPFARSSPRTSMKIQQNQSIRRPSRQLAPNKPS

pIC50	SMILES
+++++ (6.0 ≦ pIC50)	CCc1c[nH]c(=O)c2ccc(OC3CCNCC3)cc12 [Example 31]
++++ (5.0 ≦ pIC50 < 6.0)	CCc1c[nH]c(=O)c2cc(F)c(OC3CCNCC3)cc12 [Example 32]
+++++ (6.0 ≦ pIC50)	Cc1cc2c(=O)[nH]ccc2cc1OC1CCN(Cc2ccsc2)CC1 [Example 266]
++++ (5.0 ≦ pIC50 < 6.0)	O=c1[nH]ccc2cc(OC[C@H]3CCCNC3)ccc12 [Example 49]
+++++ (6.0 ≦ pIC50)	O=c1[nH]ccc2cc(OC3CCNCC3)c(F)cc12 [Example 23]
+++++ (6.0 ≦ pIC50)	Cc1c[nH]c(=O)c2ccc(OC3CCNCC3)cc12 [Example 21]
++++ (5.0 ≦ pIC50 < 6.0)	COc1cc2c(=O)[nH]ccc2cc1OC1CCNCC1 [Example 25]
+++++ (6.0 ≦ pIC50)	CC(C)N1CCC(Oc2cc3ccnc(O)c3cc2Cl)CC1 [Example 55, 7-Chloro-6-(1-isopropyl-piperidin-4-yloxy)-2H-isoquinolin-1-one]
+++++ (6.0 ≦ pIC50)	Oc1nccc2cc(OC3CCNCC3)c(Cl)cc12 [Example 54, 7-Chloro-6-(piperidin-4-yloxy)-2H-isoquinolin-1-one]
+++++ (6.0 ≦ pIC50)	O=c1[nH]ccc2c(Cl)c(OC3CCNCC3)ccc12 [Example 309, 5-Chloro-6-(piperidin-4-yloxy)-2H-isoquinolin-1-one]
+++++ (6.0 ≦ pIC50)	Cc1cc2c(=O)[nH]ccc2cc1OC1CCN(Cc2ccc(S(C)(=O)=O)cc2)CC1 [Example 275]
+++++ (6.0 ≦ pIC50)	O=c1[nH]cc(Br)c2cc(OC3CCNCC3)ccc12 [Example 52, 4-Bromo-6-(piperidin-4-yloxy)-2H-isoquinolin-1-one]
+++++ (6.0 ≦ pIC50)	Cc1cc2c(=O)[nH]cc(C)c2cc1OC1CCNCC1 [Example 28]
+++++ (6.0 ≦ pIC50)	O=c1[nH]ccc2cc(OC3CCNCC3)ccc12 [Example 12, 6-(Piperidin-4-yloxy)-2H-isoquinolin-1-one]
+++++ (6.0 ≦ pIC50)	O=c1[nH]ccc2cc(OC3CCN(CC4CC4)CC3)ccc12 [Example 58]
+++++ (6.0 ≦ pIC50)	Cc1cc2c(=O)[nH]ccc2cc1OC1CCN(Cc2ccccn2)CC1 [Example 276]
+++++ (6.0 ≦ pIC50)	O=c1[nH]ccc2cc(OC3CCNCC3)c(Br)cc12 [Example 17, 7-Bromo-6-(piperidin-4-yloxy)-2H-isoquinolin-1-one]
+++++ (6.0 ≦ pIC50)	CCCN1CCC(Oc2cc3cc[nH]c(=O)c3cc2F)CC1 [Example 101]
+++++ (6.0 ≦ pIC50)	Cc1cc2c(=O)[nH]ccc2cc1OC1CCN(CC2CCOC2)CC1 (centres unmarked) [Example 265]
+++++ (6.0 ≦ pIC50)	CN1CCC(Oc2ccc3c(=O)[nH]ccc3c2)CC1 [Example 40]
